Literature values, collected in patent EP2742940A1, “Salts of aza-bicyclo-di-aryl ethers for adminstration once daily, twice daily or thrice daily” (IP Gesellschaft für Management mbH, priority 2012, dated 2014).
pEC50: −log10 of the molar value. “And” between values parts separate entries of the source, which are not always exact repeats. Equal values may be shown once. Read-outs that look alike come from different tables or passages of the source.

Tests used:
[1] = parameters: Initial water content / Hygroscopy @ 85%RH: unit not given here
[2] = target: T1, α7-nAChR (Homo sapiens, UniProt P36544); conditions: Emax relative to epibatidine response
T1 construct: expressed in transfected cells; host or cells: GH3 cells
T1 sequence (P36544 23-502): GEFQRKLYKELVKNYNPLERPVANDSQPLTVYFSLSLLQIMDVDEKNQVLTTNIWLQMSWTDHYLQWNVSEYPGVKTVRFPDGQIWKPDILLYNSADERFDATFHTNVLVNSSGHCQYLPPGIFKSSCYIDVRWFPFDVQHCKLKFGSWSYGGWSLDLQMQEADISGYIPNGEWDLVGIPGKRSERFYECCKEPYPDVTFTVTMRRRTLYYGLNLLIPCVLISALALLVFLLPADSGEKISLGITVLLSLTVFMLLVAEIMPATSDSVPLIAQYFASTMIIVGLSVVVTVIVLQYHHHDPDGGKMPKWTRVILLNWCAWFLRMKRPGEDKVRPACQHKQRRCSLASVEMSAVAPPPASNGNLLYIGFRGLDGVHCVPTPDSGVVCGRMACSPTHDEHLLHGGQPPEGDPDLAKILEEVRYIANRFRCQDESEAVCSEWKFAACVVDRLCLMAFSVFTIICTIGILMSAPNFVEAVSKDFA

[3] = target: T2, α4β2-nAChR (Homo sapiens, UniProt P17787+P43681)
T2 construct: expressed in transfected cells
T2 sequence (P43681 29-627 limits assumed): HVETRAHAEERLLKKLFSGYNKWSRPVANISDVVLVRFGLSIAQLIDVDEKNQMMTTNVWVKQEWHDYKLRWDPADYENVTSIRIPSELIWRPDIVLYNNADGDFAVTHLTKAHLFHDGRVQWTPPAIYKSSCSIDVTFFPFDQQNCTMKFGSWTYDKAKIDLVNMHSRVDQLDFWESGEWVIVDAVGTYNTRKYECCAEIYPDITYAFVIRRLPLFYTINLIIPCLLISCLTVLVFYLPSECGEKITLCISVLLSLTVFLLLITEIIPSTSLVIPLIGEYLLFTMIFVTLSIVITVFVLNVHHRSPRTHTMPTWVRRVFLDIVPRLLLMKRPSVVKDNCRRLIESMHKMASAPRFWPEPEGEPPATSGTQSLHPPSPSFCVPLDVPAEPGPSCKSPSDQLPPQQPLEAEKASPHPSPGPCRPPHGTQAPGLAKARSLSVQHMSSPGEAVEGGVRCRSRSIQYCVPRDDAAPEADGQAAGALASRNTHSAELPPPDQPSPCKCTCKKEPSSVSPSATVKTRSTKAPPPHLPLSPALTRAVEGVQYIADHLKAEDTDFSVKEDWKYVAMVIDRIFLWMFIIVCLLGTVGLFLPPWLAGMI
T2 sequence (P17787 26-502): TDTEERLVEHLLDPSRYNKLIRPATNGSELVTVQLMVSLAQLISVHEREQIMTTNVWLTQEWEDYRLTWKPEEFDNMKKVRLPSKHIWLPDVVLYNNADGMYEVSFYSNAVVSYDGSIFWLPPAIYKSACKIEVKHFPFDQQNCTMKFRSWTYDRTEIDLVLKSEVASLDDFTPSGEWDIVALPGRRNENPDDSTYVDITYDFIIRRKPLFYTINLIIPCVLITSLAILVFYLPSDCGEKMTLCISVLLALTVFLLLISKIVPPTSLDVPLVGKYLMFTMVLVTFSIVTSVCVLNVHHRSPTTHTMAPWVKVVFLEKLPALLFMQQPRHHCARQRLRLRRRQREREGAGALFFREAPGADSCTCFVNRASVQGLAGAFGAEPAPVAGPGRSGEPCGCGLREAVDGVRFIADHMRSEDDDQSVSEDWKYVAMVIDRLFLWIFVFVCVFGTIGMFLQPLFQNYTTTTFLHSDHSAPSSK

[4] = mice; for Brain (pmoles/g)±SD) / Plasma (pmoles/ml±SD): 30 µmol/kg p.o.
[5] = test system: mice; conditions: mouse, oral, Dose 0.3 mg/kg, familiar partner at 24 h vs time 0
[6] = male Wistar rats, oral 10 mg/kg, Mean All (n=8)
[7] = male Wistar rats, oral 10 mg/kg, individual rats 01-08, listed as free base, 10 mg/kg

For `Cc1ccc(-c2ccc(O[C@H]3CN4CCC3CC4)cn2)cc1` [Compound A, (R)-3-(6-(4-methylphenyl)-pyridin-3-yloxy)-1-aza-bicyclo[2.2.2]octane], the “Hygroscopy @ 85%RH” value ([1]; 85%RH) is given as “∼2”, the Initial water content ([1]; Example 7 comparison of salt forms) is given as 0.1 and the moisture gain ([1]; at 93% relative humidity (RH)) is given as 2%. The “α7-nAChR activity Efficacy compared to epibatidine (100%)” value [2] was 75%, the pEC50 [3] was < 4.00 and the “Brain (pmoles/g)±SD)” value ([4]; 0.25 hour) was 4631 ± 1717 pmol/g. The “Plasma (pmoles/ml±SD)” value ([4]; 0.25 hour) was 573 ± 234 pmol/mL, the “Brain (pmoles/g)±SD)” value ([4]; 0.5 hour) was 11430 ± 3441 pmol/g and the “Plasma (pmoles/ml±SD)” value ([4]; 0.5 hour) was 559 ± 143 pmol/mL. The “Brain (pmoles/g)±SD)” value ([4]; 1 hour) was 14948 ± 4716 pmol/g, the “Plasma (pmoles/ml±SD)” value ([4]; 1 hour) was 322 ± 135 pmol/mL and the “Brain (pmoles/g)±SD)” value ([4]; 4 hour) was 1272 ± 715 pmol/g. For the same compound, the “Plasma (pmoles/ml±SD)” value ([4]; 4 hour) was 20 ± 16 pmol/mL, the “Brain (pmoles/g)±SD)” value ([4]; 8 hour) was 58 ± 27 pmol/g and the “time for which brain concentration is beyond (or at least equal) to the compound's EC50 at the a7-nAChR” value ([4]; acute oral dose of 30 pmol/kg (so in the source), free base form) was “at least 4 hours”. The “Reduction in time scrutinizing in % ± SEM at 24 h” value [5] was 36 ± 6%, the “AUClast” value [6] was 200 ng·h/mL and the “AUClast/Dose (h·ng/mL)/(mg/kg)” value [6] was 20.4 (h·ng/mL)/(mg/kg). For the same compound, the “Cmax” value [6] was 112 ng/mL, the “Cmax/Dose (ng/mL)/(mg/kg)” value [6] was 11.3 (ng/mL)/(mg/kg) and the “Concentration in plasma, Time (h) 0.25” value [6] was 100 ng/mL. The “Concentration in plasma, Time (h) 0.5” value [6] was 83.5 ng/mL, the “Concentration in plasma, Time (h) 1” value [6] was 52.7 ng/mL and the “Concentration in plasma, Time (h) 2” value [6] was 31.2 ng/mL. For the same compound, the “Concentration in plasma, Time (h) 3” value [6] was 16.2 ng/mL, the “Concentration in plasma, Time (h) 4” value [6] was 10.3 ng/mL and the “Concentration in plasma, Time (h) 6” value [6] was 437 ng/mL. The “Concentration in plasma, Time (h) 8” value [6] was 354 ng/mL, the “Concentration in plasma, Time (h) 24” value [6] was 0.822 ng/mL and the “AUClast” value [7] was 141 ng·h/mL and 123 ng·h/mL and 238 ng·h/mL and 136 ng·h/mL and 214 ng·h/mL and 296 ng·h/mL and 234 ng·h/mL and 236 ng·h/mL. The “AUClast/Dose (h·ng/mL)/(mg/kg)” value [7] was 14.0 (h·ng/mL)/(mg/kg) and 12.0 (h·ng/mL)/(mg/kg) and 24.4 (h·ng/mL)/(mg/kg) and 13.5 (h·ng/mL)/(mg/kg) and 21.6 (h·ng/mL)/(mg/kg) and 29.7 (h·ng/mL)/(mg/kg) and 23.4 (h·ng/mL)/(mg/kg) and 24.5 (h·ng/mL)/(mg/kg), the “Cmax” value [7] was 58.8 ng/mL and 89.6 ng/mL and 83.0 ng/mL and 94.8 ng/mL and 119 ng/mL and 188 ng/mL and 117 ng/mL and 145 ng/mL and the “Cmax/Dose (ng/mL)/(mg/kg)” value [7] was 5.81 (ng/mL)/(mg/kg) and 8.79 (ng/mL)/(mg/kg) and 8.50 (ng/mL)/(mg/kg) and 9.40 (ng/mL)/(mg/kg) and 12.0 (ng/mL)/(mg/kg) and 18.9 (ng/mL)/(mg/kg) and 11.7 (ng/mL)/(mg/kg) and 15.0 (ng/mL)/(mg/kg). For the same compound, the “Concentration in plasma, Time (h) 0.25” value [7] was 58.8 ng/mL and 89.68 ng/mL and 3.0 ng/mL and 79.4 ng/mL and 105 ng/mL and 188 ng/mL and 49.0 ng/mL and 145 ng/mL, the “Concentration in plasma, Time (h) 0.5” value [7] was 34.8 ng/mL and 51.2 ng/mL and 64.5 ng/mL and 94.8 ng/mL and 119 ng/mL and 122 ng/mL and 117 ng/mL and 65.0 ng/mL and the “Concentration in plasma, Time (h) 1” value [7] was 20.1 ng/mL and 63.9 ng/mL and 36.0 ng/mL and 65.8 ng/mL and 83.6 ng/mL and 87.0 ng/mL and 33.8 ng/mL. For the same compound, the “Concentration in plasma, Time (h) 2” value [7] was 679 ng/mL and 12.6 ng/mL and 51.7 ng/mL and 16.2 ng/mL and 43.2 ng/mL and 46.9 ng/mL and 42.2 ng/mL and 29.9 ng/mL, the “Concentration in plasma, Time (h) 3” value [7] was 531 ng/mL and 838 ng/mL and 26.3 ng/mL and 784 ng/mL and 23.0 ng/mL and 34.4 ng/mL and 18.4 ng/mL and 620 ng/mL and the “Concentration in plasma, Time (h) 4” value [7] was 394 ng/mL and 3.99 ng/mL and 18.2 ng/mL and 454 ng/mL and 8.63 ng/mL and 21.1 ng/mL and 13.8 ng/mL and 8.55 ng/mL. For the same compound, the “Concentration in plasma, Time (h) 6” value [7] was 487 ng/mL and 181 ng/mL and 662 ng/mL and 127 ng/mL and 5.32 ng/mL and 438 ng/mL and 4.59 ng/mL and 606 ng/mL, the “Concentration in plasma, Time (h) 8” value [7] was 662 ng/mL and 0.812 ng/mL and 246 ng/mL and 1.32 ng/mL and 367 ng/mL and 154 ng/mL and 225 ng/mL and 967 ng/mL and the “T1/2” value [7] was 8.67 h and 3.24 h and 367 h. For the same compound, the “Tlast” value [7] was 24.0 h (3×) and 8.0 h and the AUClast (rats, acute oral dosing of 10 mg/kg) was 200+-62 h ng/ml.
